# Patent publication US20130317045A1, “THIENOPYRIDINE AND THIENOPYRIMIDINE COMPOUNDS AND METHODS OF USE THEREOF” (AMBIT BIOSCIENCES CORPORATION, priority 2010, published 2013)
# Where two headings read alike, the source gives them in different places.
# Legend:
# [1] = test system: distinct kinases tested excluding mutant variants, typically 359 or 386 kinases; experiment: Kinase selectivity score from competition binding panel; settings: compound at 10 μM; fraction of kinases with inhibition of 90% or greater
# Experimental: (§1) Competition binding assays used herein were developed, validated and performed as described in Fabian et al., Nature Biotechnology 2005, 23,329-336. Kinases were produced as fusions to T7 phage (See, Fabian et al. or WO04/015142) or alternatively, the kinases were expressed in HEK-293 cells and subsequently tagged with DNA for PCR detection (See, WO08/005310). For the binding assays, streptavidin-coated magnetic beads were treated with biotinylated affinity ligands for 30 min at rt to generate affinity resins. The liganded beads were blocked with excess biotin and washed with blocking buffer (SeaBlock (Pierce), 1% BSA, 0.05% Tween 20, 1 mM DTT) to remove unbound ligand and to reduce non-specific binding. Binding reactions were assembled by combining kinase, liganded affinity beads, and test compounds in 1× binding buffer (20% SeaBlock, 0.17×PBS, 0.05% Tween 20, 6 mM DTT). Test compounds were prepared as 100× stocks in DMSO and rapidly diluted into the aqueous environment. DMSO was added to control assays lacking a test compound. Primary screen interactions were performed in polypropylene 384-well plates in a final volume of 34 μL, while Kd determinations were performed in polystyrene 96-well plates in a final volume of 135 μL. The assay plates were incubated at room temperature with shaking for 1 hour, long enough for binding reactions to reach equilibrium, and the affinity beads were washed extensively with wash buffer (1× PBS, 0.05% Tween 20) to remove unbound protein. The beads were then resuspended in elution buffer (1× PBS, 0.05% Tween 20, 2 μM non-biotinylated affinity ligand) and incubated at room temperature with shaking for 30 min. The kinase concentration in the eluates was measured by quantitative PCR. Each kinase was tested individually against each compound. Kds were determined using eleven serial threefold dilutions. A selectivity score, which is a quantitative measure of selectivity of a compound against a panel of enzymes, may be calculated for a compound by dividing the number of enzymes for which a compound meets a set criteria, (for example, a binding constant of 100 nM or less), by the total number of enzymes tested.
# TYK2 = target: T1, TYK2 (Homo sapiens, UniProt P29597); experiment: Competition binding assay, TYK2
# T1 construct: made in house
# Text: (§2) Competition Binding Assay to Determine Binding Constants (Kd) of the Compounds Against JAK Kinases
# as §1
# [2] = test system: GM-CSFR/JAK2/STAT5 pathway in CSTF-1 cells; experiment: CSTF-1 cell-based reporter assay (beta-lactamase, GM-CSF stimulated); set-up: species or system human; settings: GM-CSF at 2 ng/mL, 4 hours, read-out: Cell Assay: CS TF-1 reporter assay IC50
# Experimental: CSTF-1 Cell-Based Reporter Assay
# CSTF-1 cells are derived from the human erythroleukemia cell line that is growth dependent on GM-CSF and has an intact GM-CSFR/JAK2/STAT5 pathway. The cell line contains stably integrated beta-lactamase reporter gene under the control of the […] (irf 1) response element recognized by the activated transcription factor STATS. csTF-1 cells (Invitrogen K1219) were washed with assay media (97% OPTIMEM/ 0.5% dialyzed FBS/0.1 mM NEAA/1 mM Na pyr/P/S) and seeded in the same media at 5×10^5 cell/mL in T150 flask. After 16 hour incubation, cells were seeded at 2×10^5 cell/well in 50 μl volume, into Costar, clear bottom, 96-well assay plates. Serial dilutions of compounds were added to the plates with final DMSO concentration at 0.5% and GM-CSF at 2 ng/mL and the plates were then incubated at […] and 5% CO2 for 4 hours. The plates were brought to room temperature before adding Substrate Mixture according to manufacturer's protocol (Invitrogen, Catalog #K1085). The assay plates containing the substrate mixture were incubated in the dark at room temperature for 2 hours. Blue and green fluorescence was measured with excitation at 409 nm and emission at 460 nm (for blue) and excitation at 409 nm and emission at 530 nm (for green) using Spectra Max Gemini EM.
# JAK2 = target: T2, JAK2 (Homo sapiens, UniProt O60674); experiment: Competition binding assay, JAK2
# T2 construct: made in house
# Text: as §2, §1
# JAK3 = target: T3, JAK3 (Homo sapiens, UniProt P52333); experiment: Competition binding assay, JAK3
# T3 construct: made in house
# T3 sequence (P52333 1-1124): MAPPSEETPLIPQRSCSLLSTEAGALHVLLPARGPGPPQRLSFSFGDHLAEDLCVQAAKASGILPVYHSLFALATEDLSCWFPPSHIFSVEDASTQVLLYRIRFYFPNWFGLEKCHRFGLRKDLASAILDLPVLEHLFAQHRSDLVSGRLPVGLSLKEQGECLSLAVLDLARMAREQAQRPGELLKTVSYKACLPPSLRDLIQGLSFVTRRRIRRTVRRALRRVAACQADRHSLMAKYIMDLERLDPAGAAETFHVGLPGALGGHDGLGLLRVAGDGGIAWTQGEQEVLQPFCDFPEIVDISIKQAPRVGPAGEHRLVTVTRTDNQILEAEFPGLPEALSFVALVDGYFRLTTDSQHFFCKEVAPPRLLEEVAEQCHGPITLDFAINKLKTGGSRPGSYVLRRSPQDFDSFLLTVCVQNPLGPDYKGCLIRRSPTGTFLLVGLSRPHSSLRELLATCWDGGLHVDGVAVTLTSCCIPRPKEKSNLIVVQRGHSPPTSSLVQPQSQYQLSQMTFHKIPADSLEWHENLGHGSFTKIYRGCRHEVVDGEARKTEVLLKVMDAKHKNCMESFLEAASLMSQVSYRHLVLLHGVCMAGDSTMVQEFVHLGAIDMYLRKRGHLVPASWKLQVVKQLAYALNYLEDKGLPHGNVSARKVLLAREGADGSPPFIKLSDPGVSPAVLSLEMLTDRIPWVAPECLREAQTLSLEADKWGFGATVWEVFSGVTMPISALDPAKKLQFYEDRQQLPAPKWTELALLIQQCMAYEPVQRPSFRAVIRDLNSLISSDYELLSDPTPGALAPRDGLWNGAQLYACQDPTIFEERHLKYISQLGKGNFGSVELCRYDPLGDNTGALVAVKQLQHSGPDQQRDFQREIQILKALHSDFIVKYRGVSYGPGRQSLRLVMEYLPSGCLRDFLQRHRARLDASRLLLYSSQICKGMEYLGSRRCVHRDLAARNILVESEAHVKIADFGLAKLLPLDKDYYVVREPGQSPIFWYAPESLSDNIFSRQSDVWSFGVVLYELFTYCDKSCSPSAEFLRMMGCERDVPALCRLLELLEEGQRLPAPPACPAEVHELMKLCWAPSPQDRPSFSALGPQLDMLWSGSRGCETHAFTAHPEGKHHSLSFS
# Text: as §2, §1
# T1 sequence (P29597 whole entry): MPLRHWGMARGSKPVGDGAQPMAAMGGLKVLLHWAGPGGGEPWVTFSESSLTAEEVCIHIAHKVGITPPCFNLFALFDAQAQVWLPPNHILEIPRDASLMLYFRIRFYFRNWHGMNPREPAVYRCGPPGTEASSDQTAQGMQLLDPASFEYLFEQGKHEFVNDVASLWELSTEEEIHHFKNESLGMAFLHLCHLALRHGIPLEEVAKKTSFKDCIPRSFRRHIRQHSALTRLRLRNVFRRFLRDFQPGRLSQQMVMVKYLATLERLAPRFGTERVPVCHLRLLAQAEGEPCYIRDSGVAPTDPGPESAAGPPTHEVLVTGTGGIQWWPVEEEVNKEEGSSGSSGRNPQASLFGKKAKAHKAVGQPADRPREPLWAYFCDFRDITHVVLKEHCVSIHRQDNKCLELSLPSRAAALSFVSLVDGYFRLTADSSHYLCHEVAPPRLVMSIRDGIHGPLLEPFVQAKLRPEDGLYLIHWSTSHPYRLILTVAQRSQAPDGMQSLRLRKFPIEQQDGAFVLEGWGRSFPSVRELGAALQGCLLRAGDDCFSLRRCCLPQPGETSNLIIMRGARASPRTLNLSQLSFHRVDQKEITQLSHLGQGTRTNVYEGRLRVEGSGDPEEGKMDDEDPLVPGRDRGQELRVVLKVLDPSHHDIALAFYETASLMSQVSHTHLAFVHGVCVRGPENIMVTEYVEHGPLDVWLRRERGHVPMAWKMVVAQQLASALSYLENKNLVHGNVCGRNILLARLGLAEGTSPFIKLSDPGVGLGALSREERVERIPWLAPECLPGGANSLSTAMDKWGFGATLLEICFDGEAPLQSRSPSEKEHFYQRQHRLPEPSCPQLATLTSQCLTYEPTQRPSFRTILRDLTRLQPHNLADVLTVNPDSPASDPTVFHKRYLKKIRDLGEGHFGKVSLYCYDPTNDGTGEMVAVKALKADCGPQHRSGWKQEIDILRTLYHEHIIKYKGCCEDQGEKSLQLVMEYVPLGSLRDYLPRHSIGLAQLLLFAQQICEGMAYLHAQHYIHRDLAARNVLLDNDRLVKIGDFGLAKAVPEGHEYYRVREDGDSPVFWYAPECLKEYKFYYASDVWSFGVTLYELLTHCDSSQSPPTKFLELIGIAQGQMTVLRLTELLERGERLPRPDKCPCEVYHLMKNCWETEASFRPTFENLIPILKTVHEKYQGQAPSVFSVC
# T2 sequence (O60674 whole entry): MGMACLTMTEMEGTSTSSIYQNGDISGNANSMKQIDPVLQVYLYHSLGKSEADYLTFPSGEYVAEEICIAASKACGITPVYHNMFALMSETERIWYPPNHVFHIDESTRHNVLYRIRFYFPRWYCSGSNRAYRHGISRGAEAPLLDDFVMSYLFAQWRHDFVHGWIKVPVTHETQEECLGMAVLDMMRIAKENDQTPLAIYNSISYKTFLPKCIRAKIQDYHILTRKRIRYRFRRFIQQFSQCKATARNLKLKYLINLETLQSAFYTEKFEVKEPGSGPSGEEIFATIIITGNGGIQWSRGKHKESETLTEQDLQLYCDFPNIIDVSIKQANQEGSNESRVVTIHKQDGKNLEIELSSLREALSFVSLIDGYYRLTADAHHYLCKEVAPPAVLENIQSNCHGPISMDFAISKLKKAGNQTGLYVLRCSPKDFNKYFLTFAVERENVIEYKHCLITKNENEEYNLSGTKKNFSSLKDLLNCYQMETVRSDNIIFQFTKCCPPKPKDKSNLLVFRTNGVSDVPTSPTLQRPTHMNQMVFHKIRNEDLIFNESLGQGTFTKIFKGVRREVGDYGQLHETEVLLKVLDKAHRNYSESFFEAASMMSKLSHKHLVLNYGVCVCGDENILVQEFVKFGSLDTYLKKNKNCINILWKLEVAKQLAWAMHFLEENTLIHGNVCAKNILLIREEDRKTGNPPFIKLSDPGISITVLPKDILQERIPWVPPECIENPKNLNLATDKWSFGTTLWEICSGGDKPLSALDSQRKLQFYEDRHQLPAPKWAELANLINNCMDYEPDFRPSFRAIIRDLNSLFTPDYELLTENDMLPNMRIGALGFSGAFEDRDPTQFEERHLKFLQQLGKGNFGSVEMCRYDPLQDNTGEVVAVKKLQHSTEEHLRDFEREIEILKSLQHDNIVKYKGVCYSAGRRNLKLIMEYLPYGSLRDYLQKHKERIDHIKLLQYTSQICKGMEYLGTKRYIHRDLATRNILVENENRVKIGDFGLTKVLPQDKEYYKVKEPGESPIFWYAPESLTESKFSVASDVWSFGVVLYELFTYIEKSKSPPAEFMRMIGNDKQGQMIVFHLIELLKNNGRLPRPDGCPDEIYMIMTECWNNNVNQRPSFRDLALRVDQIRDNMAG
Compound,S-Score: S(10) at 10 μM [1],Kd (TYK2) [nM],IC50 ([2]; Homo sapiens) [nM],Kd (JAK2) [nM],Kd (JAK3) [nM],IC50 [2] [nM]
"Cc1cc(Nc2nc(C(O)c3ccc(F)cc3)nc3c(C)csc23)n[nH]1 (stereo not shown) [Example 23, (4-fluorophenyl)(7-methyl-4-(5-methyl-1H-pyrazol-3-ylamino)thieno[3,2-d]pyrimidin-2-yl)methanol]",A (A ≦ 0.3),≤ 10,100 to 500,≤ 1,10 to 100,–
"Cc1cc(Nc2nc(C(=O)c3ccc(F)cc3)nc3cc(C(C)(C)C)sc23)n[nH]1 [Example 26, (6-tert-butyl-4-(5-methyl-1H-pyrazol-3-ylamino)thieno[3,2-d]pyrimidin-2-yl)(4-fluorophenyl) methanone]",A (A ≦ 0.3),> 100,100 to 500,1 to 10,> 100,–
"Cc1cc(Nc2nc(C(O)c3ccc(F)cc3)nc3cc(C(C)(C)C)sc23)n[nH]1 (stereo not shown) [Example 27, (6-tert-butyl-4-(5-methyl-1H-pyrazol-3-ylamino)thieno[3,2-d]pyrimidin-2-yl)(4-fluorophenyl)methanol]",A (A ≦ 0.3),> 100,100 to 500,≤ 1,10 to 100,–
"CC(C)(C)c1cc2nc(C(=O)c3ccc(F)cc3)nc(Nc3cc[nH]n3)c2s1 [Example 28, (4-(1H-pyrazol-3-ylamino)-6-tert-butylthieno[3,2-d]pyrimidin-2-yl)(4-fluorophenyl)methanone]",A (A ≦ 0.3),> 100,100 to 500,1 to 10,> 100,–
"Cc1cc(Nc2nc(C(F)(F)c3ccc(F)cc3)nc3cc(C(C)(C)C)sc23)n[nH]1 [Example 30, 6-tert-butyl-2-(difluoro(4-fluorophenyl)methyl)-N-(5-methyl-1H-pyrazol-3-yl)thieno[3,2-d]pyrimidin-4-amine]",A (A ≦ 0.3),> 100,100 to 500,1 to 10,10 to 100,–
"CC(C)(C)c1cc2nc(C(F)(F)c3ccc(F)cc3)nc(Nc3cc[nH]n3)c2s1 [Example 31, 6-tert-butyl-2-(difluoro(4-fluorophenyl)methyl)-N-(1H-pyrazol-3-yl)thieno[3,2-d]pyrimidin-4-amine]",A (A ≦ 0.3),> 100,100 to 500,1 to 10,> 100,–
"Cc1cc(Nc2nc(C(F)(F)c3ccc(F)cn3)nc3ccsc23)n[nH]1 [Example 33, 2-(difluoro(5-fluoropyridin-2-yl)methyl)-N-(5-methyl-1H-pyrazol-3-yl)thieno[3,2-d]pyrimidin-4-amine]",C (0.4 < C ≦ 0.5),≤ 10,≤ 100,≤ 1,≤ 10,–
"(4-(1H-pyrazol-3-ylamino)-7-methylthieno[3,2-d]pyrimidin-2-yl)(4-fluorophenyl)methanone [Example 24]",A (A ≦ 0.3),> 100,–,1 to 10,> 100,> 500
